Reference: patent publication US10975354B2, “Transdifferentiated cell populations and methods of use thereof” (ORGENESIS LTD., priority 2017, dated 2021)

Key:
adult human liver cells = assay: Glucose-regulated insulin secretion (radioimmunoassay) with Ad-CMV-Pdx-1 supplemented with Wnt3A or DKK3; format: cell-based; conditions: Ad-CMV-Pdx-1 and soluble factors, 5 days; 2 mM then 17.5 mM glucose
Experimental: Adult human liver cells were treated with Ad-CMV-Pdx-1 and soluble factors, as previously reported, supplemented with Wnt3A (50 ng/ml R&D or DKK3 (3 μg/ml R&D). After 5 days, insulin secretion was analyzed by static incubations at low followed by high glucose concentrations (2 mM and 17.5 mM glucose in KRB, respectively). Insulin secretion is measured using the human insulin radioimmunoassay kit (DPC; n≥8 from 3 different experiments) and compared to untreated cells (Cont). *p<0.01 compared to Ad-CMV-Pdx-1 alone, using Student's t-test analysis.
C-peptide and insulin secretion were measured by static incubations of primary cultures of adult liver cells 6 days after the initial exposure to the viral treatment, as described (Sapir et al, (2005) ibid; Meivar-Levy et al, (2007) ibid; Aviv et al, (2009) ibid). The glucose-regulated C-peptide secretion was measured at 2 mM and 17.5 mM glucose, which was determined by dose-dependent analyses to maximally induce insulin secretion from transdifferentiated liver cells, without having adverse effects on treated cells function (Sapir et al, (2005) ibid; Meivar-Levy et al, (2007) ibid; Aviv et al, (2009) ibid). C-peptide secretion was detected by radioimmunoassay using the human C-peptide radioimmunoassay kit (Linco Research, St. Charles, Mo.; <4% cross-reactivity to human proinsulin). […]

eGFP+ cells [1] = assay: Pancreatic hormones gene expression (real-time RT-PCR) in eGFP+ cells supplemented with DKK3; format: cell-based, human; conditions: Ad-CMV-Pdx-1, 5 days, DKK3 0.5 μg/ml
Experimental: Pancreatic hormones gene expression was studied by Quantitative real-time RT-PCR compared to the control-treated cells.
Total RNA was isolated and cDNA was prepared and amplified, as described previously (Ber et al, (2003) J Biol Chem 278: 31950-31957; Sapir et al, (2005) ibid). Quantitative real-time RT-PCR was performed using ABI Step one plus sequence Detection system (Applied Biosystems, CA, USA), as described previously (Sapir et al, (2005) ibid; Meivar-Levy et al, (2007) ibid; Aviv et al, (2009) J Biol Chem 284: 33509-33520).

DsRed+ cells = assay: Reprogramming of DsRed+ cells with Li followed by pTFs in the presence of HDACi; format: cell-based, human; conditions: combination with 10 mM Li for 48 hours; 5 mM SB or 1 μM SAHA during 2+1 TD
Experimental: Wnt-pathway activation was induced by supplementing cell medium with 10 mM Li for 48 hours. Subsequently, cells were transdifferentiated by pancreatic transcription factors (pTFs) in the presence of 5 mM sodium butyrate (SB) (FIG. 44A) or 1 μM suberanilohydroxamic acid (SAHA) (FIG. 44B). […] Bars show ratios of transcript levels of cells treated with HDACi and pTFs compared with cells treated with pTFs alone. Transcript levels were normalized to β-actin transcript levels. N=4 independent experiments with cells from two donors. * P-value<0.05.
Representative HDACi sodium-butyrate (SB) and suberanilohydroxamic acid (SAHA) were used to induce histone hyperacetylation, which is associated with permissive chromatin structure. Methods: Primary liver cells were incubated with 10 mM lithium (Li) for 48 hours to activate Wnt signaling. Subsequently, cells were contacted with pancreatic transcription factors according to the “2+1” transdifferentiation protocol described in Example 12 in the presence of 5 mM SB (Na-Butyrate) or 1 μM SAHA.

eGFP+ cells [2] = assay: Transdifferentiation of DKK-treated eGFP+ cells in the presence of sodium butyrate; format: cell-based, human; conditions: DKK 3 μg/ml for 48 hours, then pTFs with 5 mM sodium butyrate
Experimental: Wnt-pathway activation was induced by supplementing cell medium with 10 mM Li for 48 hours. Subsequently, cells were transdifferentiated by pancreatic transcription factors (pTFs) in the presence of 5 mM sodium butyrate (SB) (FIG. 44A) or 1 μM suberanilohydroxamic acid (SAHA) (FIG. 44B). In the GFP+ cell population, a similar effect was observed when Wnt-pathway was inhibited by supplementing serum-based medium with 3 μg/ml Dickkopf (DKK) for 48 hours followed by the transdifferentiation of cells by pTFs in the presence of 5 mM sodium butyrate (SB) (FIG. 44C). Bars show ratios of transcript levels of cells treated with HDACi and pTFs compared with cells treated with pTFs alone. Transcript levels were normalized to β-actin transcript levels. N=4 independent experiments with cells from two donors. * P-value<0.05.
Similarly, SB (HDAC inhibitor) treatment alleviated the effect of Wnt signaling inhibition of eGFP+ cells (FIG. 44C).

human liver cultures = assay: Glucose stimulated insulin secretion with WNT3A or DKK added during TD; format: cell-based; conditions: added during TD (ectopic pTFs); measured five days later
Experimental: FIGS. 41A-41G show active WNT signaling controls the activation of the pancreatic lineage in liver. (FIG. 41A) Efficient reprogramming of liver to pancreas relies on active WNT signaling. WNT signaling was activated by Wnt3A, or, alternatively, blocked by DKK, concomitantly to ectopic pTFs expression (TD) in human liver cultures. Glucose stimulated Insulin secretion was measured five days later. Results are average and standard error (SE) of 3-6 repeats from 3 different donors. * P-value<0.05; ** P-value<0.005; *** P-value<0.0005. […] Efficiency of reprogramming was measured by the activation of pancreatic genes expression and relative insulin secretion induced by high glucose concentrations (17.5 mM). […]
100,000 cells/well were seeded in a 6-wells plate in a low glucose DMEM media supplemented with 2 mM L-glutamine, 10% serum, antibiotics, 10 mM Nicotinamide, 20 ng/ml EGF, and 5 nM exendin4. […] After 48 hours the cells were harvested, counted, and 100,000 cells were infected with 50MOI of Ad-MafA and re-plated as above. 72 hours later the cells were analyzed for gene expression and insulin secretion, as detailed below. […]
Glucose regulated insulin secretion (FIGS. 38D and 38F, and 41A) was measured by radioimmunoassay kit (DPC, Los-Angeles, Calif.) as described previously (Berneman-Zeitouni D et al., ibid). […]

Molecule | Pdx-1-induced glucose-regulated insulin secretion (adult human liver cells) | transdifferentiation capacity of eGFP cells (eGFP+ cells [1]) | reprogramming of DsRed+ cells (expression of PDX-1, Isl-1, Pax-4, Nkx6.1) (DsRed+ cells) | effect of Wnt signaling inhibition of eGFP+ cells (eGFP+ cells [2]) | glucose-regulated insulin secretion (human liver cultures)
DKK3: Dickkopf-related protein 3 (R&D), an inhibitor of the Wnt signaling pathway | completely abolished | totally abolished |  |  | 
CCCC(=O)[O-].[Na+] [SB, sodium-butyrate] |  |  | increased reprogramming | alleviated | 
O=C(CCCCCCC(=O)Nc1ccccc1)NO [SAHA, suberanilohydroxamic acid] |  |  | increased reprogramming |  | 
Wnt3A: WNT3A protein (R&D), Wnt-pathway agonist (protein, UniProt P56704 19-352, looked up) Protein Wnt-3a: SYPIWWSLAVGPQYSSLGSQPILCASIPGLVPKQLRFCRNYVEIMPSVAEGIKIGIQECQHQFRGRRWNCTTVHDSLAIFGPVLDKATRESAFVHAIASAGVAFAVTRSCAEGTAAICGCSSRHQGSPGKGWKWGGCSEDIEFGGMVSREFADARENRPDARSAMNRHNNEAGRQAIASHMHLKCKCHGLSGSCEVKTCWWSQPDFRAIGDFLKDKYDSASEMVVEKHRESRGWVETLRPRYTYFKVPTERDLVYYEASPNFCEPNPETGSFGTRDRTCNVSSHGIDGCDLLCCGRGHNARAERRREKCRCVFHWCCYVSCQECTRVYDVHTCK | increased |  |  |  | marked increase
